Test results taken from the NIST ThermoML archive (doi:10.1016/j.fluid.2006.05.015).

Conditions: Fluid (supercritical or subcritical phases), Constant-volume piezometry

O [water]
Conditions	mass density [kg/m3]
299.25 K, 5182 kPa	999.2
299.25 K, 31060 kPa	1010.4
349.12 K, 8540 kPa	977.86
349.12 K, 24440 kPa	984.93
399.57 K, 3183 kPa	939.45
399.57 K, 30090 kPa	952.6
438.94 K, 6455 kPa	905.35
438.94 K, 27860 kPa	917.35
494.18 K, 8890 kPa	844.81
494.18 K, 29240 kPa	859.91
555.43 K, 9803 kPa	751.67
555.43 K, 27940 kPa	777.34
617.27 K, 16300 kPa	603.42
617.27 K, 28080 kPa	653.82
